Experimental data as given in patent US20260345609A1, “METHODS FOR PROMOTING PERSISTENCE OF CELL THERAPY” (Legend Biotech Ireland Limited, priority 2022, published 2026).

What was measured:
LUCAR-20SD cells = experiment: In vitro mixed lymphoid (MLR) model with LUCAR-20SD cells, UnT and Raji cells: graft LUCAR-20SD cells; type: cell-based, human; conditions: 0.05 μM, 1 μM, 2 μM MTX
Description: To evaluate the ability of LUCAR-20SD cells to tolerate allogeneic T cell rejection, an in vitro mixed lymphoid (MLR) model was established.
Using the T cells from a random healthy donor (B donor), LUCAR-20SD cells were prepared following the method in Example 1, as the graft cells. Un-transduced T cells (UnT) from another random healthy donor (Adonor) were also prepared, as the host cells.
The cell density of CD20 positive cells (lymphoma cell lines Raji, ATCC, CCL-86) was adjusted to 1×10^6 cells/mL. Raji cells were treated with 20 μg/mL mitomycin at 37° C. for 3 h, washed three times with 10 mL DPBS, and were resuspended in the culture medium. 20×10^6 untransduced T cells (UnT, T cell donor A), 1×10^6 LUCAR-20SD cells (T cell donor B), and 5×10^6 treated lymphoma cells Raji were mixed and cultured in the medium. The cell mixture was divided into 4 groups, and 0 μM MTX, 0.05 μM MTX, 1 μM MTX, or 2 μM MTX was added, respectively. […] According to the formula: fold change of cell number (UnT)=[cell number counted by AOPI×(CAR-CD5+%)]/20, fold change of cell number (LUCAR-20SD cells)=[cell number counted by AOPI×(CAR+CD5+%)]/1, the cell proliferation curves of UnT and LUCAR-20SD cells were plotted.

CAR-γδT cells = experiment: In vitro mixed lymphoid (MLR) model with CAR-γδT cells, UnT and U937 cells: graft CAR-γδT cells; type: cell-based, human; conditions: 0.05 μM and 0.5 μM MTX
Description: To evaluate the ability of γδ T cells to tolerate allogeneic T cell rejection, an in vitro mixed lymphoid (MLR) model was established.
Using the T cells from a random healthy donor (B donor), CAR-γδT cells were prepared following the method in Example 1, as the graft cells. Un-transduced T cells (UnT) from another random healthy donor (T cell donor A) were also prepared, as the host cells.
The density of CLL1 positive human lymphoma cells (U937) was adjusted to 1×10^6 cells/mL. U937 cells were treated with 20 μg/mL mitomycin at 37° C. for 3 h, washed three times with 10 mL DPBS, and suspended in the culture medium. 20×10^6 untransduced T cells (UnT, T cell donor A), 1×10^6 CAR-γδT cells (T cell donor B), and 5×10^6 treated human lymphoma cells U937 were mixed and cultured in the medium. The cell mixture was divided into 3 groups, and 0 μM, 0.05 μM MTX, or 0.5 μM MTX was added, respectively. […] CAR-γδT cells were stimulated repeatedly with U937 cells at day0, day4, day7 at an E/T ratio of 1:1 According to the formula: fold change of cell number (UnT)=[cell number counted by AOPI×(CD3-/TCR VY9+%)]/20, fold change of cell number (CAR-γδT)=[cell number counted by AOPI×(CD3+/TCR Vγ9+%)]/1, the cell proliferation curves of UnT and CAR-γδT cells were plotted.

[1] = system: human gastric cancer cells NUGC4; experiment: In vivo efficacy in subcutaneous NUGC4 gastric cancer xenograft model, tumor volume; design: species or system NCG immunodeficient mice; human tumor cells; conditions: G5, 22.635 mg/kg MTX alone i.p., day5 to day35, p>0.05
Description: Refer to Example 1, the fusion gene sequence of SIV Nef M116-IRES-CD8α SP Claudin18.2 VHH-CD8α Hinge-CD8α TM-4-1BB-ITAM010 (SEQ ID NO: 5) was cloned into the expression plasmid pLVX-hEF1α to form the M1645 expression plasmid. The anti-Claudin18.2 VHH, as well as the antigen binding domain of CAR, have been disclosed in PCT/CN2020/139143. TGB23-6-IRES-DHFR L22F/F31S (SEQ ID NO: 7) was cloned into the expression plasmid pLVX-hEF1α to form the M1647 expression plasmid. The fusion protein of TGB23-6 is a signal converter, and has been described in PCT/CN2022/087016. To obtain LUCAR-GC cells, M1645 and M1647 were transduced into T cells. The production of Virus vector and the transduction of primary T were completed with reference to Example 1.
Severely immunodeficient NCG mice were used for in vivo efficacy evaluation. On day −14 before treatment, NCG immunodeficient mice were inoculated subcutaneously with tumor cells (3×10^6 human gastric cancer cells NUGC4/mouse). […] During the experiment, animal status, survival, tumor volume and body weight were measured twice a week. […] The proportion of transplanted cells (hCD45+%/live) in the peripheral blood of mice was counted.

LUCAR-GC cells = experiment: Expansion of transplanted LUCAR-GC cells in peripheral blood of NUGC4 xenograft mice (hCD45+%/live); type: in vivo, NCG immunodeficient mice; human cells; conditions: 22.635 mg/kg MTX i.p.
Description: Severely immunodeficient NCG mice were used for in vivo efficacy evaluation. On day −14 before treatment, NCG immunodeficient mice were inoculated subcutaneously with tumor cells (3×10^6 human gastric cancer cells NUGC4/mouse). The xenografted mice were divided into 5 groups ([…], G3, G4 and G5) on day 0, and received a single intravenous injection of HBSS (G1, G5), untransduced T cells (UnT) (G2, at a dose of 3.6×10^6 cells/mouse), LUCAR-GC cell preparation (G3 and G4, at a dose of 1×10^6 CAR+ cells/mouse). Mice in G4 and G5 groups were additionally given 22.635 mg/kg MTX by intraperitoneal injection on day5, day10, day 15, day20, day25, day30, day35, respectively. […] During the experiment, animal status, survival, tumor volume and body weight were measured twice a week. Blood was collected from the mouse eyeballs every week to separate cells, and then resuspended in DPBS with 1 μL of FITC anti human CD45 (Biolegend, 304038). The proportion of transplanted cells (hCD45+%/live) in the peripheral blood of mice was counted.

## CN(Cc1cnc2nc(N)nc(N)c2n1)c1ccc(C(=O)N[C@@H](CCC(=O)O)C(=O)O)cc1 [MTX, methotrexate]
LUCAR-20SD cells
  protective effect on heterologous LUCAR-20SD cells: good protective effect on heterologous LUCAR-20SD cells
CAR-γδT cells
  protective effect on heterologous CAR-γδT cells: good protective effect on heterologous CAR-γδT cells
[1]
  tumor volume compared with control G1 and G2: not significantly different
LUCAR-GC cells
  expansion of LUCAR-GC cells in peripheral blood, presence or absence of MTX: no significant difference in the expansion of LUCAR-GC cells
